In publication PMC9775652, “Concomitant Administration of Red Ginseng Extract with Lactic Acid Bacteria Increases the Plasma Concentration of Deglycosylated Ginsenosides in Healthy Human Subjects” (Biomolecules, 2022):

Key:
[1] = rat, in vivo, po; cited from earlier work
P-gp = target: T1, P-gp (Homo sapiens, UniProt P08183); test: Transport of ginsenosides in P-gp-overexpressing LLC-PK1-P-gp cells; format: in vitro ADME; details: pig
T1 construct: host or cells: LLC-PK1-P-gp cells (passage no. 25–28)
T1 sequence (P08183 whole entry): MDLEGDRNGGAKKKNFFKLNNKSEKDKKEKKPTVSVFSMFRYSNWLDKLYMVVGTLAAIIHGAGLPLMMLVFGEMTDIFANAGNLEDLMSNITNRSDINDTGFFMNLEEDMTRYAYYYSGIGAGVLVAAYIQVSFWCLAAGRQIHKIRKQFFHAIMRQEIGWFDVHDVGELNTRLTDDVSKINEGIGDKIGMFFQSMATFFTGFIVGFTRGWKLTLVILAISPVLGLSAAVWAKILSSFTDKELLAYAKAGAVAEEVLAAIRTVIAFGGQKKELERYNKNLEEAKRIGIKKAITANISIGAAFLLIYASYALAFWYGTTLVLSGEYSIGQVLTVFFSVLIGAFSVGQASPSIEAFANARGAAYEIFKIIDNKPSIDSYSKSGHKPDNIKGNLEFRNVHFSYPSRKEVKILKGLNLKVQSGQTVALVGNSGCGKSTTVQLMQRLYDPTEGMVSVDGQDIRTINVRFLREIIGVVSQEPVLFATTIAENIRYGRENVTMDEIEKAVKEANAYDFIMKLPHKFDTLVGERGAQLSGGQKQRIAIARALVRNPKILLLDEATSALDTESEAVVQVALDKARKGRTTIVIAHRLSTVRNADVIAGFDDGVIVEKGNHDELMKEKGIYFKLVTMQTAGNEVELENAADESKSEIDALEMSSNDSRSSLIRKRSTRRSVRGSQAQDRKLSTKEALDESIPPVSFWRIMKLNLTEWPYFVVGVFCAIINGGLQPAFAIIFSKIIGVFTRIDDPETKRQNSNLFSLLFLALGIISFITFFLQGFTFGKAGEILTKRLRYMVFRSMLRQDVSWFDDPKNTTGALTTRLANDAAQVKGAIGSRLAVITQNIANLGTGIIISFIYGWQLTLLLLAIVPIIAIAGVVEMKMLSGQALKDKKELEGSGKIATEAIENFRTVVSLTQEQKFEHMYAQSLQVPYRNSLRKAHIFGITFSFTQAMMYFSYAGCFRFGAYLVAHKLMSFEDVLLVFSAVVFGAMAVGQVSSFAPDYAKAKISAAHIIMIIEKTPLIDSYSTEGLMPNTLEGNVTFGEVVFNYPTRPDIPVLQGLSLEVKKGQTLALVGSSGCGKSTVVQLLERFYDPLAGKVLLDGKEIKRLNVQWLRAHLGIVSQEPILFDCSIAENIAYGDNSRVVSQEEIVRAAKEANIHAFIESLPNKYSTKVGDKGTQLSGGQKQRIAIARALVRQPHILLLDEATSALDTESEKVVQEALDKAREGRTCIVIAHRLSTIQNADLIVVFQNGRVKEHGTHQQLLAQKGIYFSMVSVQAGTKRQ
Experimental: (§1) LLC-PK1-P-gp cells (passage no. 25–28) were seeded onto collagen-coated permeable support (1.0 μm pore size) in 24-well plates at a density of 2.5 × 10^4 cells/insert and grown for 5 days with TEER values of over 500 Ω·cm^2 [24]. The A to B transport and B to A transport of GRg3, GRh2, CK, PPD, GRg1, GRh1, and PPT (20 μM each) were measured as previously described. The concentration dependency in the B to A transport of GRh2, CK, PPD, and PPT was measured in the range of 6.25–200 μM for GRh2, CK, PPD, and PPT.
(§2) For the transport study of ginsenosides in CaCo-2 cells and LLC-PK1-P-gp cells, the ginsenoside transport rate in the A to B or B to A directions was calculated from the slope of the regression line from the mean transported amounts versus time plot. The apparent permeability (Papp) was calculated using Equation (1). (1) Papp (×10^−6 cm/s)=transport rate (nmol/min)/concentration(μM)×area(cm^2)×60s
(§3) The efflux ratio was calculated by dividing the Papp of ginsenosides from the B to A direction by that from the A to B direction.
(§4) To measure the kinetic parameters of the concentration dependence on the P-gp-mediated ginsenoside efflux, the ginsenoside transport rate in the B to A direction (ν) versus the ginsenoside concentration (S) plot was fitted in the Michaelis–Menten Equation (2) using Sigma Plot (version 12.0, Systat Software Inc. Chicago, IL, USA). (2) ν=Vmax×S/Km+S

[2] = Pharmacokinetic study of ginsenosides in healthy humans after repeated oral RGE with or without LAB; format: in vivo, human; details: male, human, in vivo, po
Experimental: A single-sequence study consisting of two periods was conducted on five healthy male subjects (body weight > 50 kg and age > 19 years) for 29 days. During the first period of the study (RGE treatment group), three pouches of RGE (30 mL, 104.1 mg of total ginsenosides) were administered to 5 subjects once daily for 14 days. On the 14th day, the subjects were admitted to the Clinical Trial Center of KNUH at 7 AM and underwent the last RGE administration at approximately 8–9 AM. Blood samples (approximately 3 mL) were collected at 0, 4, 6, 8, 10, 12, 13, 14, and 24 h after the last dose. A saline-locked angiocatheter was placed on the forearm of each subject’s hand. After discarding 1 mL of blood derived from the catheter, 3 mL of blood was drawn into a vacutainer tube containing heparin and centrifuged at 3000× g for 10 min. The supernatant plasma samples were stored at −80 °C until ginsenoside analysis.
In the second half of the study (RGE + LAB treatment group), 3 pouches of RGE (30 mL, 104.1 mg of total ginsenosides) and 1 pouch of LAB (1 billion CFU/2 g) were co-administered once daily for 14 days. On the […], the subjects were admitted to the Clinical Trial Center of KNUH at 7 AM and received the last red ginseng dose at approximately 8–9 AM. Blood samples (approximately 3 mL) were withdrawn at 0, 4, 6, 8, 10, 12, 13, 14, and 24 h intervals after the last dose and centrifuged at 3000× g for 10 min; the supernatant plasma samples were stored at −80 °C.
Briefly, to analyze GRb1, GRb2, GRc, GRd, GRe, GRf, GRg1, GRg3, GF1, and GF2, 400 μL of an internal standard (IS; 0.05 ng/mL berberine in methanol) was added to 100 μL of plasma. The mixture was vortexed for 15 min and centrifuged at 16,000× g for 5 min. After centrifugation, 400 μL of the supernatant was evaporated using a speed-dry vacuum concentrator (Christ, Osterode am Harz, Germany). The residue was reconstituted using 200 μL of 70% methanol supplemented with 0.1% formic acid, and a 10 μL aliquot was injected into the LC-MS/MS system. Chromatographic separation was performed using a Polar RP column (150 × 2.0 mm, 4.0 μm particle size; Phenomenex, Torrance, CA, USA) using a mobile phase consisting of 0.1% formic acid in water (phase A) and 0.1% formic acid in methanol (phase B). The following elution gradient was used: 69% of phase B for 0–2.0 min, 69–85% of phase B for 2.0–4.0 min, and 85–69% of phase B for 6.0–6.5 min. The flow rate was 0.27 mL/min.
The mixture was vortexed for 10 min and centrifuged at 16,000× g for 5 min. After centrifugation, the samples were frozen at −80 °C for 4 h. The upper layer was transferred to a clean tube and evaporated. The residue was reconstituted using 200 μL of 80% methanol supplemented with 0.1% formic acid, and a 10 μL aliquot was injected into the LC-MS/MS system. Chromatographic separation was performed using a Luna C18 column (150 × 2.0 mm, 3.0 μm particle size; Phenomenex, Torrance, CA, USA) and using a mobile phase consisting of water containing 0.1% formic acid: methanol containing 0.1% formic acid = 8:92 (v/v) at a flow rate of 0.15 mL/min.
The quantification of ginsenosides was carried out using multiple reaction monitoring in positive ionization mode, as previously described.
Finally, pharmacokinetic parameters were calculated using non-compartmental methods (WinNonlin version 5.1; Pharsight Co., Certara, NJ, USA). Statistical analysis was performed by Student’s t-test to compare the two groups using IBM SPSS Statistics for Windows (version 25.0; IBM Corp., Armonk, NY, USA). Differences were considered significant at p < 0.05.

LAB [3] = test: Incubation of individual ginsenosides with LAB (metabolic pathway); format: in vitro ADME; details: individual ginsenoside 10 μM with LAB (1 billion CFU), 7 days; GF2 to CK, CK to PPD, GRg1 to GRh1; result in words
Experimental: (§5) To identify the effects of LAB on ginsenoside metabolism, an in vitro fermentation study was performed according to the method of Jeon et al., with slight modifications. Briefly, RGE (10 mL, 1 pouch) and 2 g LAB (containing 1 billion CFU) were suspended in 10 mL autoclaved MRS broth (550 mg broth powder dissolved in 10 mL water). For the 15 ginsenosides, individual ginsenosides (10 μM each) and 2 g of LAB were suspended in 20 mL of autoclaved MRS broth (550 mg broth powder dissolved in 20 mL water). The mixture was incubated for 7 days in a shaking incubator at 37 °C and 300 rpm, and a 0.1 mL aliquot of the incubation mixture was collected on days 0, 3, 5, and 7. The incubation medium was diluted 100-fold with distilled water and stored at −80 °C to analyze ginsenosides using the LC-MS/MS system.
(§6) To measure the metabolic activity of ginsenosides, the formation rate of ginsenosides (pmol/day) was calculated by dividing the slope of the regression line by the amount of deglycosylated ginsenosides versus the incubation time plot by the initial concentration of individual ginsenosides.

[4] = tested on: T2, [H][C@@]1(O[C@H]2CC[C@]3(C)[C@@]4([H])C[C@@H](O)[C@]5([H])[C@@]([H])([C@@](C)(O)CCC=C(C)C)CC[C@@]5(C)[C@]4(C)CC[C@@]3([H])C2(C)C)O[C@H](CO)[C@@H](O)[C@H](O)[C@H]1O; test: Transport of ginsenosides in P-gp-overexpressing LLC-PK1-P-gp cells; format: in vitro ADME; details: other: B to A transport rate in LLC-PK1-P-gp cells, 6.25–200 μM, Michaelis–Menten fit
T2 construct: host or cells: LLC-PK1-P-gp cells (passage no. 25–28)
Experimental: as §1, §2, §3, §4

[5] = tested on: T3, CC(C)=CCCC(C)(O)C1CCC2(C)C1C(O)CC1C3(C)CCC(O)C(C)(C)C3C(O)CC12C; test: as above; format: in vitro ADME; details: other: B to A transport rate in LLC-PK1-P-gp cells, 6.25–200 μM, Michaelis–Menten fit
T3 construct: host or cells: LLC-PK1-P-gp cells (passage no. 25–28)
Experimental: as §1, §2, §3, §4

[6] = tested on: T4, CC(C)=CCCC(C)(O)C1CCC2(C)C1C(O)CC1C3(C)CCC(O)C(C)(C)C3CCC12C; test: as above; format: in vitro ADME; details: other: B to A transport rate in LLC-PK1-P-gp cells, 6.25–200 μM, Michaelis–Menten fit
T4 construct: host or cells: LLC-PK1-P-gp cells (passage no. 25–28)
Experimental: as §1, §2, §3, §4

[7] = tested on: T5, CC(C)=CCCC(C)(OC1OC(CO)C(O)C(O)C1O)C1CCC2(C)C1C(O)CC1C3(C)CCC(O)C(C)(C)C3CCC12C; test: as above; format: in vitro ADME; details: other: B to A transport rate in LLC-PK1-P-gp cells, 6.25–200 μM, Michaelis–Menten fit
T5 construct: host or cells: LLC-PK1-P-gp cells (passage no. 25–28)
Experimental: as §1, §2, §3, §4

LAB [8] = test: In vitro RGE fermentation with LAB; format: in vitro ADME; details: RGE incubated with LAB (1 billion CFU) for 7 days at 37 °C; result in words
Experimental: as §5, §6

[9] = Transport (permeability) of ginsenosides in CaCo-2 cell monolayers; format: in vitro ADME; details: human, Caco-2
Experimental: CaCo-2 cells (passage no 41–43) were seeded onto collagen-coated permeable support (1.0 μm pore size) in a 24-well plate at a density of 2.5 × 10^4 cells/insert and cultured for 21 days in Dulbecco’s modified eagle’s medium supplemented with 10% fetal bovine serum, 1% non-essential amino acids, and 1% penicillin-streptomycin at 37 °C in a humidified atmosphere (5% CO2/95% air). After confirming that the transepithelial electrical resistance (TEER) of the CaCo-2 cell monolayer was over 400 Ω·cm^2, Apical to basal (A to B) transport and B to A transport of ginsenosides using 50 µM, GRb1 was investigated as previously described. The same permeability study was performed using 50 µM GRb2, GRc, GRd, GRg3, GRh2, GF2, CK, PPD, GRe, GRf, GRg1, GRh1, GF1, or PPT.
as §2, §3

Papp A→B at 20 μM (P-gp; LLC-PK1) [×10⁻⁶ cm/s]	Papp B→A at 20 μM (P-gp; LLC-PK1) [×10⁻⁶ cm/s]	CLint (intrinsic clearance) (P-gp; llc-pk1) [µL/min]	Cmax [2] [ng/mL]	AUC ([2]; 104.1 mg) [ng·h/mL]	MRT ([2]; MRT) [h]	Tmax ([2]; Tmax) [h]	Compound	Oral BA [1] [%]	LAB-mediated deglycosylation (formation of deglycosylated ginsenoside from the incubated ginsenoside) (LAB [3])	Km [4] [µM]	Vmax [4] [nmol/min]	Km [5] [µM]	Vmax [5] [nmol/min]	Km [6] [µM]	Vmax [6] [nmol/min]	Km [7] [µM]	Vmax [7] [nmol/min]	Relative abundance / metabolic activity following fermentation of RGE with LAB (LAB [8])	Papp A→B at 50 µM [9] [×10⁻⁶ cm/s]
0.14	8.25 ± 0.58	690	5.1 ± 2.2	57.9 ± 16.6	17.2 ± 4.5	8 ± 4	CC(C)=CCCC(C)(OC1OC(CO)C(O)C(O)C1O)C1CCC2(C)C1C(O)CC1C3(C)CCC(O)C(C)(C)C3CCC12C (centres unmarked) [CK, compound K]	4.3	the highest	–	–	–	–	–	–	–	–	–	–
–	–	–	–	–	–	–	P-gp (Homo sapiens)	–	–	151	75.9	83	19.2	76	0.40	98	67.7	–	–
–	–	–	–	–	–	–	CC(C)=CCCC(C)(OC1OC(CO)C(O)C(O)C1O)C1CCC2(C)C1C(O)CC1C3(C)CCC(OC4OC(CO)C(O)C(O)C4O)C(C)(C)C3CCC12C (centres unmarked) [GF2]	–	negligible	–	–	–	–	–	–	–	–	remained unchanged	< 0.3
